From ChEMBL document CHEMBL1201862, “PubChem BioAssay data set” (2004)
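1) Cells in 96-well plates. 2) Compound, 48 h, 5 concentrations. 3) Linear interpolation between surrounding doses. 4) Unreached endpoint = highest concentration. The concentration for 50% growth inhibition is given as GI50.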 Active and inactive are the calls of the source. Cut-off read from the data, not from the text of the source: active = GI50 up to about 1.1 µM and inactive = higher.

Columns and labels:
Assay in all cases: growth of human tumour cells (NCI), 48 h
[1] = tested on: PC-3
[2] = tested on: SK-MEL-2
[3] = tested on: NCI-H23
[4] = tested on: M14
[5] = tested on: DU-145
[6] = tested on: OVCAR-3
[7] = tested on: OVCAR-8
[8] = tested on: SN12C
[9] = tested on: HCT-15
[10] = tested on: ACHN
[11] = tested on: HOP-62
[12] = tested on: OVCAR-4
[13] = tested on: UACC-62
[14] = tested on: OVCAR-5
[15] = tested on: Malme-3M
[16] = tested on: EKVX
[17] = tested on: NCI-H522
[18] = tested on: MCF7
[19] = tested on: UACC-257
[20] = tested on: SF-295
[21] = tested on: SNB-75
[22] = tested on: MDA-N
[23] = tested on: KM12
[24] = tested on: HT-29
[25] = tested on: HCT-116
[26] = tested on: HOP-92
[27] = tested on: NCI/ADR-RES
[28] = tested on: COLO 205
[29] = tested on: SK-OV-3
[30] = tested on: HL-60
[31] = tested on: Hs-578T
[32] = tested on: BT-549
[33] = tested on: 786-0
[34] = tested on: UO-31
[35] = tested on: T47D
[36] = tested on: IGROV-1
[37] = tested on: MDA-MB-435
[38] = tested on: SF-539
[39] = tested on: SF-268
[40] = tested on: RXF 393
[41] = tested on: CAKI-1
[42] = tested on: SK-MEL-5
[43] = tested on: U-251
[44] = tested on: TK-10
[45] = tested on: NCI-H226
[46] = tested on: A549
[47] = tested on: CCRF-CEM
[48] = tested on: A498
[49] = tested on: SNB-19
[50] = tested on: SW-620
[51] = tested on: LOX IMVI
[52] = tested on: RPMI-8226
[53] = tested on: NCI-H460
[54] = tested on: K562
[55] = tested on: MOLT-4
[56] = tested on: SK-MEL-28
[57] = tested on: SR
[58] = tested on: HCC 2998
[59] = tested on: MDA-MB-231

`CCOC(=O)CCC(C(=O)OCC)n1nnc2cc(Nc3c(C)[n+]([O-])c4cc(Cl)ccc4[n+]3[O-])ccc21` (stereo unspecified) was tested, and the GI50 [1] was > 100 µM (inactive), the GI50 [2] was 77.8 µM (inactive) and the GI50 [3] was 60.5 µM (inactive). For the same molecule, the GI50 [4] was 44.6 µM (inactive), the GI50 [5] was > 100 µM (inactive) and the GI50 [6] was 40.2 µM (inactive). The GI50 [7] was > 100 µM (inactive), the GI50 [8] was 96.6 µM (inactive) and the GI50 [9] was 43.9 µM. The GI50 [10] was 46.2 µM (inactive), the GI50 [11] was 46.8 µM (inactive) and the GI50 [12] was 77.4 µM (inactive). The GI50 [13] was 55.7 µM (inactive), the GI50 [14] was 62.8 µM (inactive) and the GI50 [15] was > 100 µM (inactive). The GI50 [16] was 14.2 µM (inactive), the GI50 [17] was > 100 µM (inactive) and the GI50 [18] was 28.2 µM (inactive). The GI50 [19] was 40.1 µM (inactive), the GI50 [20] was 68.5 µM (inactive) and the GI50 [21] was 89.3 µM (inactive). The GI50 [22] was > 100 µM (inactive), the GI50 [23] was > 100 µM (inactive) and the GI50 [24] was 76 µM (inactive). The GI50 [25] was 47.9 µM (inactive), the GI50 [26] was 67.9 µM (inactive) and the GI50 [27] was 35.1 µM (inactive). For the same molecule, the GI50 [28] was 41.7 µM (inactive), the GI50 [29] was > 100 µM (inactive) and the GI50 [30] was 41.3 µM (inactive). For the same molecule, the GI50 [31] was > 100 µM (inactive), the GI50 [32] was > 100 µM (inactive) and the GI50 [33] was 59.2 µM (inactive). For the same molecule, the GI50 [34] was 72.6 µM (inactive), the GI50 [35] was 47.2 µM (inactive) and the GI50 [36] was > 100 µM (inactive). The GI50 [37] was > 100 µM (inactive), the GI50 [38] was 95.5 µM (inactive) and the GI50 [39] was 38.4 µM (inactive). The GI50 [40] was 53.6 µM (inactive), the GI50 [41] was 93.3 µM (inactive) and the GI50 [42] was 49.8 µM (inactive). For the same molecule, the GI50 [43] was 80.4 µM (inactive), the GI50 [44] was > 100 µM (inactive) and the GI50 [45] was 32.9 µM (inactive). For the same molecule, the GI50 [46] was > 100 µM (inactive), the GI50 [47] was 35.6 µM (inactive) and the GI50 [48] was > 100 µM (inactive). For the same molecule, the GI50 [49] was > 100 µM (inactive), the GI50 [50] was 88.7 µM (inactive) and the GI50 [51] was 69.2 µM (inactive). For the same molecule, the GI50 [52] was 37.2 µM (inactive), the GI50 [53] was 48.3 µM (inactive) and the GI50 [54] was 59.2 µM (inactive). For the same molecule, the GI50 [55] was 49.1 µM (inactive).

`CCC1(COC(NC(=O)c2ccccc2)(C(F)(F)F)C(F)(F)F)COC1` was tested, and the GI50 [1] was > 100 µM (inactive), the GI50 [2] was > 100 µM (inactive) and the GI50 [3] was > 100 µM (inactive). The GI50 [4] was > 100 µM (inactive), the GI50 [7] was > 100 µM (inactive) and the GI50 [8] was > 100 µM (inactive). The GI50 [9] was over 100 µM, the GI50 [10] was 65.6 µM (inactive) and the GI50 [14] was > 100 µM (inactive). The GI50 [16] was > 100 µM (inactive), the GI50 [19] was > 100 µM (inactive) and the GI50 [21] was > 100 µM (inactive). The GI50 [22] was > 100 µM (inactive), the GI50 [24] was > 100 µM (inactive) and the GI50 [25] was > 100 µM (inactive). The GI50 [27] was > 100 µM (inactive), the GI50 [28] was > 100 µM (inactive) and the GI50 [29] was > 100 µM (inactive). For the same molecule, the GI50 [30] was > 100 µM (inactive), the GI50 [31] was > 100 µM (inactive) and the GI50 [32] was > 100 µM (inactive). For the same molecule, the GI50 [33] was > 100 µM (inactive), the GI50 [34] was > 100 µM (inactive) and the GI50 [56] was > 100 µM (inactive). The GI50 [35] was > 100 µM (inactive), the GI50 [36] was > 100 µM (inactive) and the GI50 [37] was > 100 µM (inactive). The GI50 [57] was > 100 µM (inactive), the GI50 [58] was > 100 µM (inactive) and the GI50 [38] was > 100 µM (inactive). The GI50 [39] was > 100 µM (inactive), the GI50 [40] was > 100 µM (inactive) and the GI50 [41] was > 100 µM (inactive). For the same molecule, the GI50 [42] was > 100 µM (inactive), the GI50 [43] was > 100 µM (inactive) and the GI50 [44] was > 100 µM (inactive). The GI50 [46] was > 100 µM (inactive), the GI50 [47] was > 100 µM (inactive) and the GI50 [48] was > 100 µM (inactive). For the same molecule, the GI50 [49] was > 100 µM (inactive), the GI50 [50] was > 100 µM (inactive) and the GI50 [51] was > 100 µM (inactive). The GI50 [52] was > 100 µM (inactive), the GI50 [54] was > 100 µM (inactive) and the GI50 [55] was 52.4 µM (inactive).

For `COc1cc([C@@H]2c3cc4c(cc3[C@@H](NCCNCCO)[C@H]3COC(=O)[C@H]23)OCO4)cc(OC)c1O`, the GI50 [1] was 3.78 µM (inactive), the GI50 [2] was 2.78 µM (inactive) and the GI50 [3] was 1.08 µM (active). The GI50 [4] was 3.48 µM (inactive), the GI50 [7] was 1.81 µM (inactive) and the GI50 [9] was 34.6 µM. The GI50 [11] was 1.2 µM (inactive), the GI50 [12] was 14.4 µM (inactive) and the GI50 [13] was 0.601 µM (active). The GI50 [19] was 5.02 µM (inactive), the GI50 [21] was 1.19 µM (inactive) and the GI50 [22] was 3.88 µM (inactive). For the same molecule, the GI50 [23] was 3.72 µM (inactive), the GI50 [59] was 3.69 µM (inactive) and the GI50 [24] was 2 µM (inactive). The GI50 [25] was 2 µM (inactive), the GI50 [27] was > 99.5 µM (inactive) and the GI50 [28] was 2.42 µM (inactive). For the same molecule, the GI50 [29] was 2.33 µM (inactive), the GI50 [31] was 2.63 µM (inactive) and the GI50 [32] was 2.14 µM (inactive). The GI50 [33] was 0.762 µM (active), the GI50 [34] was 15.4 µM (inactive) and the GI50 [56] was 2.67 µM (inactive). The GI50 [35] was 0.841 µM (active), the GI50 [36] was 1.3 µM (inactive) and the GI50 [37] was 9.44 µM (inactive). For the same molecule, the GI50 [40] was 2.02 µM (inactive), the GI50 [41] was 2.83 µM (inactive) and the GI50 [42] was 0.659 µM (active). For the same molecule, the GI50 [43] was 0.813 µM (active), the GI50 [44] was 7.38 µM (inactive) and the GI50 [45] was 1.37 µM (inactive). The GI50 [46] was 0.406 µM (active), the GI50 [47] was 0.0861 µM (active) and the GI50 [48] was 3.85 µM (inactive). The GI50 [49] was 0.836 µM (active), the GI50 [50] was 2.84 µM (inactive) and the GI50 [53] was 0.0951 µM (active). The GI50 [54] was 1.04 µM (active) and the GI50 [55] was 0.0267 µM (active).
